Results published in patent US6635786B2, “Symmetrically disubstituted aromatic compounds and pharmaceutical compositions for inhibiting poly (ADP-ribose) glycohydrolase, and methods for their use” (Guilford Pharmaceuticals, Inc., priority 2001, dated 2003).

Target: T1, human PARG (Homo sapiens, UniProt Q86W56)
T1 construct: human PARG from amino acid 378 to 976; GST (glutathione-S-transferase, pGEX-4T1) (N); made in house; host or cells: E. coli BL21
Assay: PARG enzymatic assay
Format: biochemical
Conditions: recombinant GST-fused human PARG (aa 378-976); 3H-labeled poly-(ADP-ribose) substrate; 23° C., 10 min
Protocol: The potency of PARG inhibition was determined in a PARG enzymatic assay. For each compound, various doses were used to inhibit the PARG reaction. A dose responsible curve was generated to determine the IC50 value and the concentration (in μM) required to achieve 50% inhibition of the reaction.
The PARG assay consisted of (a) preparation of 3H-labeled radioactive PARG as substrate, (b) purification of recombinant PARG, (c) incubation of the compound with the PARG reaction, (d) separation of the product by absorption to glass fiber filter and quantifying the radioactivity of ADP-ribose by scintillation counting.
3H-labeled poly-(ADP-ribose) was made by mixing labeled and unlabeled PAR. Labeled PAR was synthesized in a reaction of 50 mM Tris-HCl (pH 8.0), 4 mM MgCl2, 0.8 μg/mL activated DNA, 3 μM NAD, NEN 3H-NAD (0.1 mCi/mL), 0.8 μl/mL and 1.4 μl/mL Trevigen PARP. The reaction was incubated at room temperature for 60 min, then dialyzed to remove unincorporated 3H NAD using a MWCO 7000 dialysis cassette in 50 mM Phosphate buffer (pH 7.1) at 5° C. over night. Buffer was changed and dialysis continued for 2 h in the morning. The resulting 3H PAR gave 80,000 DPM/10 μL by scintillation counting.
Unlabeled PAR was synthesized in a reaction that consisted of 50 mM Tris-HCl (pH 8.0), 4 mM MgCl2, 0.8 μg/mL activated DNA, 150 μM NAD, and 1.9 μl/mL Trevigen PARP. The reaction was incubated at room temperature for 60 min, and dialyzed to remove unincorporated NAD in a MWCO 7000 cassette using 50 mM Phosphate buffer (pH 7.1) over night at […]. Buffer was changed and dialysis continued for 2 h in the morning. The OD260 of synthesized PAR is […].
The final PAR mix is made by combining 3H-PAR and PAR synthesized @ 150 μM NAD so that the OD260=0.2-0.3 and the DPM/10 μL=10,000 DPM (SA=0.45 Ci/mmole). EDTA was added to 1 mM.
A cDNA fragment encoding the carboxy terminal part of human PARG from amino acid 378 to 976 was amplified by polymerase chain reaction with human thymus cDNA (Clontech, Palo Alto, Calif.) as a template and a pair of primers with the sequences of 5′-[…]-3′ and 5′-[…]-3′. The primers contained the restriction enzyme sites EcoRI and XhoI. The PCR amplified PARG DNA fragment was digested with EcoRI and XhoI, and then ligated to the same sites in pGEX-4T1 plasmid (acquired from Pharmacia/Upjohn Co., Kalamazoo, Mich.) to create pGEX-PARG by using standard molecular biology procedure. The pGEX-PARG was transformed into E. coli strain BL21 for expressing the recombinant protein that has a glutathione-S-transferase at the amino terminus and fused in frame with PARG at the carboxy terminus. The recombinant protein was expressed and purified using glutathione-sephadex 4B beads according to the standard methodology.
A range of potential PARG inhibitors at final concentrations of 200.0 to 0.1 μM were tested, each point done in triplicate. The compounds were dissolved in DMSO resulting in a final DMSO concentration of 5.0%. The reaction was carried out in a volume of 0.1 mL. PARG enzyme was added to a concentration of 0.05 μL/mL to microtiter plates containing approximately 10 μM 3H-labeled poly-(ADP-ribose) in 50 mM Phosphate buffer (pH 7.1), 5 mM B-mercaptoethanol. The reaction was incubated at 23° C. for 10 min. and was stopped with the addition of TCA to a final concentration of 10%.
Enzyme activity was measured by the disappearance of substrate, [poly-(ADP-ribose) polymer], which was quantified as the loss of glass fiber filter adsorbed radioactivity. The reaction was harvested onto Millipore GFC96 well filter plates using the Packard Cell Harvestor. The plates were washed three times with 70% ethanol, air dried, and the radioactivity was measured by scintillation counting.

T1 sequence (Q86W56 378-976): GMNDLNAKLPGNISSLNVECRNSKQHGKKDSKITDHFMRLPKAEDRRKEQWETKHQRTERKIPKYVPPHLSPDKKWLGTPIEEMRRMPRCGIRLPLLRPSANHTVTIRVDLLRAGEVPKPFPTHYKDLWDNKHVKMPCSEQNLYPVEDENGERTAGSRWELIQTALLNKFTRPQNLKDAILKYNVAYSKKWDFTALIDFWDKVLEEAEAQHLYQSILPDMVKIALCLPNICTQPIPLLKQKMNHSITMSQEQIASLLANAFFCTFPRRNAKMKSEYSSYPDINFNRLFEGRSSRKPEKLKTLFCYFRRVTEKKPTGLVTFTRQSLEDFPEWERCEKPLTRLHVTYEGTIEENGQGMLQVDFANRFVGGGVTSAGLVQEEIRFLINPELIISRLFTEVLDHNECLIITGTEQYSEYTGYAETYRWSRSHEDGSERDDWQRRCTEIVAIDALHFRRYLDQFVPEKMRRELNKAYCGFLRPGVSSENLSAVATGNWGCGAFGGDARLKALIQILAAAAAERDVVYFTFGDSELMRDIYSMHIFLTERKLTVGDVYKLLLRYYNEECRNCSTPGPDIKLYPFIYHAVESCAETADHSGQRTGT

Row | IC50 [µM] | Molecule
1 | 18.9 | O=C(OCc1ccc(F)cc1)c1ccc2c(c1)C(Cl)(Cl)c1cc(C(=O)OCc3ccc(F)cc3)ccc1-2 [Example 4, 9,9-Dichloro-9H-fluorene-2,7-dicarboxylic acid bis-(p-fluorobenzyl) ester]
2 | 11.2 | O=C(OCCc1ccccc1)c1ccc2c(c1)C(Cl)(Cl)c1cc(C(=O)OCCc3ccccc3)ccc1-2 [Example 5, 9,9-Dichloro-9H-fluorene-2,7-dicarboxylic acid bis-(2-phenyl-ethyl) ester]
3 | 10 | O=C(OCc1ccc(O)c(O)c1)c1ccc2c(c1)C(Cl)(Cl)c1cc(C(=O)OCc3ccc(O)c(O)c3)ccc1-2 [Example 6, 9,9-Dichloro-9H-fluorene-2,7-dicarboxylic acid bis-(3,4-dihydroxy-benzyl) ester]
4 | 45.6 | COC(=O)c1ccc2c(c1)C(Cl)(Cl)c1cc(C(=O)OC)ccc1-2 [Example 7, 9,9-Dichloro-9H-fluorene-2,7-dicarboxylic acid bis-methyl ester]
5 | 17.1 | O=C(OCCc1cccc2ccccc12)c1ccc2c(c1)C(Cl)(Cl)c1cc(C(=O)OCCc3cccc4ccccc34)ccc1-2 [Example 8, 9,9-Dichloro-9H-fluorene-2,7-dicarboxylic acid bis-(2-naphthalen-1-yl-ethyl) ester]
6 | 46.6 | O=C(OCCc1ccc2ccccc2c1)c1ccc2c(c1)C(Cl)(Cl)c1cc(C(=O)OCCc3ccc4ccccc4c3)ccc1-2 [Example 9, 9,9-Dichloro-9H-fluorene-2,7-dicarboxylic acid bis-(2-naphthalen-2-yl-ethyl) ester]
7 | 27.1 | O=C(OCc1ccc2ccccc2c1)c1ccc2c(c1)C(Cl)(Cl)c1cc(C(=O)OCc3ccc4ccccc4c3)ccc1-2 [Example 10, 9,9-Dichloro-9H-fluorene-2,7-dicarboxylic acid bis-(2-naphthalen-2-yl-methyl) ester]
8 | 7.9 | O=C(OCc1cccc2ccccc12)c1ccc2c(c1)C(Cl)(Cl)c1cc(C(=O)OCc3cccc4ccccc34)ccc1-2 [Example 11, 9,9-Dichloro-9H-fluorene-2,7-dicarboxylic acid bis-(2-naphthalen-1-yl-methyl) ester]
9 | 18.3 | COc1ccc(CCCCOC(=O)c2ccc3c(c2)C(Cl)(Cl)c2cc(C(=O)OCCCCc4ccc(OC)cc4)ccc2-3)cc1 [Example 12, 9,9-Dichloro-9H-fluorene-2,7-dicarboxylic acid bis-[4-(4-methoxy-phenyl)-butyl]ester]
10 | 47.7 | O=C(NCc1cccc2ccccc12)c1ccc2c(c1)C(Cl)(Cl)c1cc(C(=O)NCc3cccc4ccccc34)ccc1-2 [Example 14, 2,7 Bis-[N-(naphthalen-1-ylmethyl)-carbamoyl]-9,9-dichloro-9H-fluorene]
11 | 24.9 | O=C(NCCc1ccccc1)c1ccc2c(c1)C(Cl)(Cl)c1cc(C(=O)NCCc3ccccc3)ccc1-2 [Example 15, 2,7-Bis-[N-(phenethyl)-carbamoyl]-9,9-dichloro-9H-fluorene]
12 | 21.8 | O=C(NCc1ccccc1)c1ccc2c(c1)C(=O)c1cc(C(=O)NCc3ccccc3)ccc1-2 [Example 17, 2,7-Bis(N-benzylcarbamoyl)-9-Oxo-9H-fluorene]
13 | 75 | O=C(NCc1ccccc1)c1ccc(C(=O)c2ccc(C(=O)NCc3ccccc3)cc2)cc1 [Example 19, 4,4′-Bis(N-benzyl)carbamoyl-benzophenone]
14 | 40.1 | O=C(NCCCc1ccccc1)c1ccc(C(=O)c2ccc(C(=O)NCCCc3ccccc3)cc2)cc1 [Example 20, 4,4′-Bis(N-phenpropyl)carbamoyl-benzophenone]
15 | 65.6 | O=C(NCCc1ccccc1)c1cccc(C(=O)c2cccc(C(=O)NCCc3ccccc3)c2)c1 [Example 21, 3,3′-Bis(N-phenethyl)carbamoyl-benzophenone]
16 | 35.2 | O=C(NCc1ccccc1)c1ccc2c(c1)-c1ccc(C(=O)NCc3ccccc3)c3cccc-2c13 [Example 23, 3,9-Bis(N-phenylmethyl)fluoranthenedicarboxamide]
17 | 57 | O=C(NCCN1CCCCC1)c1ccc2c(c1)-c1ccc(C(=O)NCCN3CCCCC3)c3cccc-2c13 [Example 24, 3,9-Bis[N-(2-piperidin-1-yl)ethyl]fluoranthenedicarboxamide]
18 | 28.6 | O=C(NCCN1CCCC1)c1ccc2c(c1)-c1ccc(C(=O)NCCN3CCCC3)c3cccc-2c13 [Example 25, 3,9-Bis[N-(2-pyrrolidin-1-yl)-ethyl]fluoranthenedicarboxamide]
19 | 100 | O=C(NCc1cccnc1)c1ccc2c(c1)-c1ccc(C(=O)NCc3cccnc3)c3cccc-2c13 [Example 26, 3,9-Bis[N-(pyridin-3-yl)methyl]fluoranthenedicarboxamide]
20 | 100 | O=C(NCCCN1CCOCC1)c1ccc2c(c1)-c1ccc(C(=O)NCCCN3CCOCC3)c3cccc-2c13 [Example 27]
21 | 11.1 | COc1ccc(CNC(=O)c2ccc3c(c2)-c2ccc(C(=O)NCc4ccc(OC)c(OC)c4)c4cccc-3c24)cc1OC [Example 28, 3,9-Bis[N-(3,4-dimethoxy-benzyl)]fluoranthenedicarboxamide]
22 | 29 | O=C(NCCOc1ccccc1)c1ccc2c(c1)-c1ccc(C(=O)NCCOc3ccccc3)c3cccc-2c13 [Example 29, 3,9-Bis[N-(2-phenoxy)ethyl]fluoranthenedicarboxamide]
23 | 21.2 | O=C(NCCc1ccc(Cl)cc1Cl)c1ccc2c(c1)-c1ccc(C(=O)NCCc3ccc(Cl)cc3Cl)c3cccc-2c13 [Example 30, 3,9-Bis[N-[2-(2,4-dichloro-phenyl)]-ethyl]fluoranthenedicarboxamide]
24 | 30.4 | N#CC1CCC(CNC(=O)c2ccc3c(c2)-c2ccc(C(=O)NCC4CCC(C#N)CC4)c4cccc-3c24)CC1 (centres unmarked) [Example 31]
25 | 21.1 | COc1ccccc1CCNC(=O)c1ccc2c(c1)-c1ccc(C(=O)NCCc3ccccc3OC)c3cccc-2c13 [Example 32, 3,9-Bis{N-[2-(2-methoxy-phenyl)]-ethyl}fluoranthenedicarboxamide]
26 | 45.5 | COc1cccc(CCNC(=O)c2ccc3c(c2)-c2ccc(C(=O)NCCc4cccc(OC)c4)c4cccc-3c24)c1 [Example 33, 3,9-Bis{N-[2-(3-methoxy-phenyl)]-ethyl}fluoranthenedicarboxamide]
27 | 15.1 | NS(=O)(=O)c1ccc(CCNC(=O)c2ccc3c(c2)-c2ccc(C(=O)NCCc4ccc(S(N)(=O)=O)cc4)c4cccc-3c24)cc1 [Example 35, 3,9-Bis[N-[2-(4-sulfamoyl-phenyl)]-ethyl]fluoranthenedicarboxamide]
28 | 106 | O=C(OCc1ccccn1)c1ccc2c(c1)-c1ccc(C(=O)OCc3ccccn3)c3cccc-2c13 [Example 36, 3,9-Bis(2-pyridinylmethyl)fluoranthenedicarboxylate]
29 | 17 | O=C(CCCl)c1ccc2oc3ccc(C(=O)CCCl)cc3c(=O)c2c1 [Example 38, 2,7-Bis-(3-chloro-propionyl)-xanthen-9-one]
30 | 5.7 | O=C(c1cccc2c1S(=O)(=O)c1c(cccc1C(=O)N1CCN(c3ccc(F)cc3)CC1)O2)N1CCN(c2ccc(F)cc2)CC1 [Example 43, 1,9-Bis{N-[4-(4-fluoro-phenyl)-piperazine-carbamoyl]}-10,10-dioxo-phenoxathiin]

Row | Molecule | IC50 [µM]
31 | 3,9-Bis[3-(1-pyrrolo)propionyl]fluoranthene [Example 55] | 27.3
32 | 3,9-Bis{N-[(2,3-dimethoxy-phenyl)]-methyl}fluoranthenedicarboxamide [Example 34] | 31.2
